Laboratory results published in patent publication US10167270B2, “Substituted quinazoline compounds and uses thereof for modulating glucocerebrosidase activity” (Northwestern University, priority 2015, dated 2019).
“Also recorded” adds a separate entry of the source. Where two headings read alike, the source gives them in different places. One block for each compound: values may come before it.

How the values were obtained:
wild-type GCase [1] = target: T1, wild-type GCase (Homo sapiens (Human), UniProt P04062); assay: GCase enzyme activity assay (4MU-β-Glc, no taurocholate); assay type: biochemical
T1 sequence (P04062 40-536): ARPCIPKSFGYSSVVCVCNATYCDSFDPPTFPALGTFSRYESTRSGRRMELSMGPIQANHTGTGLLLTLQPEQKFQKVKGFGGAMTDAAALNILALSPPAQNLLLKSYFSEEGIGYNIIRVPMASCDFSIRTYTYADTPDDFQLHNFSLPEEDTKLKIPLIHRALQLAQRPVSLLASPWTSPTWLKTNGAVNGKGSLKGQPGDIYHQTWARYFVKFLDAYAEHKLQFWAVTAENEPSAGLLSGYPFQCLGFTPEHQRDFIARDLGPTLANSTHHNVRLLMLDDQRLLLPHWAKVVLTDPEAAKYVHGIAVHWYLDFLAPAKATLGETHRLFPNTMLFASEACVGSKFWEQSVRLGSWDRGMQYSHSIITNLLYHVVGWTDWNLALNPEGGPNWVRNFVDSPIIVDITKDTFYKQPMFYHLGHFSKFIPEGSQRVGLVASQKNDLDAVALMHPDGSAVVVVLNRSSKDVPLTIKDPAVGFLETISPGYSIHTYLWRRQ
Procedure: In previous studies, high concentrations of taurocholate (4-10 mM) were used to improve the signal in GCase enzyme activity assays^16,27,28. […] Here we describe our modifications of the substituents on the quinazoline ring.
4-Methylumbelliferyl β-D-glucopyranoside (4MU-β-Glc), 4-methylumbelliferyl α-D-glucopyranoside,4-methylumbelliferyl α-D-galactopyranoside, and buffer components were purchased from Sigma-Aldrich (St. Louis, Mo.). The recombinant wild-type GCase enzyme velaglucerase alfa (Vpriv®, Shire Human Genetic Therapies, Inc.), acid α-glucosidase enzyme alglucosidase alfa (Lumizyme®, Genzyme Corporation), α-galactosidase A enzyme agalsidase beta (Fabrazyme®, Genzyme Corporation) were used in activity assays. […] A solution of 1 M sodium hydroxide and 1 M glycine (pH 10) was used as the stop solution for all three enzyme activity assays.
The compounds in DMSO solution (0.5 μL/well) were transferred to a black 96-well plate (the final titration started from 100 μM, a 12 or 24-point 2-fold dilution series). […] After 5 min of incubation at room temperature, the enzyme reaction was initiated by the addition of blue substrate (4MU-13-Glc) (33 μL/well). The final concentration of the blue substrate was 1.5 mM. The blue substrate reaction was terminated by the addition of 33 μL/well stop solution (1 M NaOH and 1 M glycine mixture, pH 10) after 30 min of incubation at 37° C. […] The selected compounds were further assayed under pH 5.0 and pH 7.0 to evaluate their selectivity under various pH conditions.

wild-type GCase [2] = target: T1, wild-type GCase; assay: Fluorescence thermal shift analysis; assay type: binding; settings: pH 5.0, in words
Text: Compounds shown to act as pharmacological chaperones for GCase (or other lysosomal enzymes) also stabilize the enzyme against thermal denaturation. A fluorescent thermal shift assay was developed to evaluate the binding affinity of ligands with protein^30. […] The maximum thermal shift of these compounds corresponded to their inhibitory activity at pH 5.0.
A robotic pipeline in the High Throughput Analysis Laboratory (HTAL) was used for protein ligand screening by fluorescence thermal shift (FTS) analysis. The pipeline used a Mosquito robot (TTP Labtech) for protein dispensing and an Echo 550 (Labcyte) to add compounds. Thermal scanning coupled with fluorescence detection was performed on a real-time PCR machine CFX384 (Bio-Rad Laboratories). The assay was run in 384-well PCR plates, using 10 μL citric acid/K2HPO4 buffer (50 mM citric acid, 150 mM K2HPO4, pH 5.0) per well. The assay concentration for protein was 1 μM and that for Sypro Orange (Invitrogen) was 5×. Protein was premixed with Sypro Orange and dispensed to a plate first, and compounds were added. Final concentrations of compounds ranged from 0.5 to 200 μM. Then the plate was sealed with an optical seal, shaken, and centrifuged. The thermal scan was from 10 to 95° C. with a temperature ramp rate of 1.5° C./min. The fluorescence was recorded every 10 sec. Data analysis and report generation were performed using the in-house software excelFTS.

acid α-glucosidase (GAA) = acid α-glucosidase (GAA) (Homo sapiens (Human), UniProt P10253); assay: Enzyme selectivity assay, acid α-glucosidase; assay type: biochemical; settings: up to 100 μM
Text: (§1) Louis, Mo.). The recombinant wild-type GCase enzyme velaglucerase alfa ([…] Human Genetic Therapies, Inc.), acid α-glucosidase enzyme alglucosidase alfa (Lumizyme®, Genzyme Corporation), α-galactosidase A enzyme agalsidase beta (Fabrazyme®, Genzyme Corporation) were used in activity assays. […] The acid α-glucosidase and α-galactosidase A enzyme activity assay methods were similar to the GCase enzyme activity assay above with slight modifications.

α-galactosidase A (GLA) = α-galactosidase A (GLA) (Homo sapiens (Human), UniProt P06280); assay: Enzyme selectivity assay, α-galactosidase A; assay type: biochemical; settings: up to 100 μM
Sequence of α-galactosidase A (GLA) (P06280 32-429): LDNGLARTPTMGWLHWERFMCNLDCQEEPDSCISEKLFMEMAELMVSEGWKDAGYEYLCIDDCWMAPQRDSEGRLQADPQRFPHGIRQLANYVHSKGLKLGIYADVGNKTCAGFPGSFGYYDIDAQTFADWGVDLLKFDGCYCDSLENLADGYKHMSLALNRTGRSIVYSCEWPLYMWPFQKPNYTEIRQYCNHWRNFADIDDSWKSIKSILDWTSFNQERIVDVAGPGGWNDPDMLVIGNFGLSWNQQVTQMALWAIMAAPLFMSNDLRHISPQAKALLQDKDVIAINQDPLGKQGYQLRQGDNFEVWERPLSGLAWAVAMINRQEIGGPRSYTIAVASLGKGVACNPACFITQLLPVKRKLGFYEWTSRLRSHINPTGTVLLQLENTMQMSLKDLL
Text: as §1

[3] = target: N370S mutant GCase in patient fibroblasts (Homo sapiens (Human), UniProt P04062, N370S); assay: GCase protein level in N370S fibroblasts by Western blot; assay type: cell-based; settings: 3 days treatment
Sequence of N370S mutant GCase in patient fibroblasts (P04062 40-536 N409S): as the sequence (P04062 40-536) above, with N370S counted along it
Procedure: The N370S fibroblast cell line was obtained from Coriell, GM00372, cultured in DMEM medium (Life Tech) including 1% v/v L-glutamine 200 mM (Life Tech), 1% v/v pen strep (Life Tech), 10% FBS (Life Tech) at 37° C. and 5% CO2 and treated with different compounds at 0.2 μM and 2 μM. After a 3-day treatment, cells were washed with inhibitor free media 3 times and fed with inhibitor free media for 1 day, followed by 1% Triton X-100 lysis buffer to lyse cells. Protein concentrations were measured with a Bradford kit (Thermo), and the GCase activity was determined at pH 5.5.
Proteins were denatured in 20% SDS sample buffer at 100° C. for 10 min; 10% Bis-Tris gel (Life Tech) was used for gels; Trans-Blot Turbo PVDF kit (Bio-Rad) was used for membrane transfer, and Chemidoc MP system (Bio-Rad) was used to analyze the blots.

[4] = Table 1, pH 5.9, mean ± SD, read-out: IC50
[5] = Table 2, pH 5.9, mean ± SD, read-out: IC50
[6] = Table 3, pH 5.9, mean ± SD, read-out: IC50
[7] = Table 4, pH 5.9, mean ± SD, read-out: IC50
[8] = pH 5.0, mean ± SD, read-out: IC50 pH 5.0
[9] = pH 7.0, mean ± SD, read-out: IC50 pH 7.0
[10] = Table 5, pH 5.9, mean ± SD, read-out: IC50

SMILES: CC1CCC(Nc2nc(-c3cccnc3)nc3ccccc23)CC1 (single isomer, unassigned) [Compound 6a]
IC50 (wild-type GCase [1]; [4]): 56 ± 5 nM

SMILES: CC1CCC(Nc2nc(-c3cccnc3)nc3ccccc23)CC1 (single isomer, unassigned) [Compound 6c]
IC50 (wild-type GCase [1]; [4]): 20 ± 2 nM
IC50 (wild-type GCase [1]; read-out: IC50): 20 nM

SMILES: c1cncc(-c2nc(NC3CCc4ccccc4C3)c3ccccc3n2)c1 (single isomer, unassigned) [Compound 9a]
decrease of inhibitory activity at pH 5.0 compared to pH 5.9 (wild-type GCase [1]): 3 fold
stabilization of GCase (melting point change) (wild-type GCase [2]): stabilize wild-type GCase in a dose-dependent manner; also recorded: increased the GCase melting point in a dose-dependent manner
activity of acid α-glucosidase on compound treatment (acid α-glucosidase (GAA)): not significantly changed
activity of α-galactosidase A on compound treatment (α-galactosidase A (GLA)): not significantly changed

SMILES: CCC1CCC(Nc2nc(-c3cccnc3)nc3ccccc23)CC1 (stereo not drawn) [Compound 6b]
IC50 (wild-type GCase [1]; [4]): 126 ± 7 nM

SMILES: COC1CCC(Nc2nc(-c3cccnc3)nc3ccccc23)CC1 (stereo not drawn) [Compound 6d]
IC50 (wild-type GCase [1]; [4]): 251 ± 18 nM

SMILES: CC1(C)CCC(Nc2nc(-c3cccnc3)nc3ccccc23)CC1 [Compound 6e]
IC50 (wild-type GCase [1]; [4]): 431 ± 42 nM

SMILES: FC1(F)CCC(Nc2nc(-c3cccnc3)nc3ccccc23)CC1 [Compound 6f]
IC50 (wild-type GCase [1]; [4]): 234 ± 17 nM

SMILES: CN(C)C1CCC(Nc2nc(-c3cccnc3)nc3ccccc23)CC1 (stereo not drawn) [Compound 6g]
IC50 (wild-type GCase [1]; Table 1, pH 5.9, mean ± SD): Inactive

SMILES: c1cncc(-c2nc(NC3CCCOC3)c3ccccc3n2)c1 (stereo not drawn) [Compound 6h]
IC50 (wild-type GCase [1]; [4]): 891 ± 23 nM

SMILES: CN1CCC(Nc2nc(-c3cccnc3)nc3ccccc23)CC1 [Compound 6i]
IC50 (wild-type GCase [1]; Table 1, pH 5.9, mean ± SD): Inactive

SMILES: CC(C)N1CCC(Nc2nc(-c3cccnc3)nc3ccccc23)CC1 [Compound 6j]
IC50 (wild-type GCase [1]; [4]): 33200 ± 9710 nM

SMILES: c1ccc(CN2CCC(Nc3nc(-c4cccnc4)nc4ccccc34)CC2)cc1 [Compound 6k]
IC50 (wild-type GCase [1]; [4]): 36100 ± 8720 nM

SMILES: c1cncc(-c2nc(NC3CCCCCCC3)c3ccccc3n2)c1 [Compound 7a]
IC50 (wild-type GCase [1]; [5]): 27 ± 2 nM

SMILES: c1cncc(-c2nc(NC3CCCCCC3)c3ccccc3n2)c1 [Compound 7b]
IC50 (wild-type GCase [1]; [5]): 42 ± 3 nM

SMILES: c1cncc(-c2nc(NC3CCCC3)c3ccccc3n2)c1 [Compound 7c]
IC50 (wild-type GCase [1]; [5]): 720 ± 50 nM

SMILES: c1cncc(-c2nc(NC3CCC3)c3ccccc3n2)c1 [Compound 7d]
IC50 (wild-type GCase [1]; [5]): 2840 ± 340 nM

SMILES: c1cncc(-c2nc(NC3CC3)c3ccccc3n2)c1 [Compound 7e]
IC50 (wild-type GCase [1]; [5]): 28100 ± 3210 nM

SMILES: c1cncc(-c2nc(NC34CC5CC(CC(C5)C3)C4)c3ccccc3n2)c1 [Compound 7f]
IC50 (wild-type GCase [1]; [5]): 926 ± 80 nM

SMILES: c1cncc(-c2nc(NC3CC4CCC3C4)c3ccccc3n2)c1 (stereo not drawn) [Compound 7g]
IC50 (wild-type GCase [1]; [5]): 282 ± 43 nM

SMILES: c1cncc(-c2nc(NCC3CCCCC3)c3ccccc3n2)c1 [Compound 7h]
IC50 (wild-type GCase [1]; [5]): 405 ± 40 nM

SMILES: c1cncc(-c2nc(NCCC3CCCCC3)c3ccccc3n2)c1 [Compound 7i]
IC50 (wild-type GCase [1]; [5]): 857 ± 33 nM

SMILES: c1ccc(Nc2nc(-c3cccnc3)nc3ccccc23)cc1 [Compound 8a]
GCase inhibitory activity in words (wild-type GCase [1]): lost activity
IC50 (wild-type GCase [1]; Table 3, pH 5.9, mean ± SD): inactive
stabilization of GCase (melting point change) (wild-type GCase [2]): did not change the melting points significantly

SMILES: c1ccc(CNc2nc(-c3cccnc3)nc3ccccc23)cc1 [Compound 8b]
IC50 (wild-type GCase [1]; [6]): 5770 ± 820 nM

SMILES: c1cncc(-c2nc(N[C@@H]3CCc4ccccc4C3)c3ccccc3n2)c1 [Compound 9b]
decrease of inhibitory activity at pH 5.0 compared to pH 5.9 (wild-type GCase [1]): 3 fold
stabilization of GCase (melting point change) (wild-type GCase [2]): stabilize wild-type GCase in a dose-dependent manner; also recorded: increased the GCase melting point in a dose-dependent manner
activity of acid α-glucosidase on compound treatment (acid α-glucosidase (GAA)): not significantly changed
activity of α-galactosidase A on compound treatment (α-galactosidase A (GLA)): not significantly changed

SMILES: c1cncc(-c2nc(NC3CCCc4ccccc43)c3ccccc3n2)c1 (stereo not drawn) [Compound 9d]
GCase inhibitory activity in words (wild-type GCase [1]): low micromolar range
IC50 (wild-type GCase [1]; [7]): 872 ± 71 nM

SMILES: c1coc(-c2nc(NC3Cc4ccccc4C3)c3ccccc3n2)c1 [Compound 11h, N-(2,3-dihydro-1H-inden-2-yl)-2-(furan-2-yl)quinazolin-4-amine]
IC50 (wild-type GCase [1]; [10]): 21.1 ± 2.4 nM

Further lines, with some results ahead:

IC50 (wild-type GCase [1]; [6]): 97 ± 9 nM
SMILES: c1ccc(CCNc2nc(-c3cccnc3)nc3ccccc23)cc1 [Compound 8c]

IC50 (wild-type GCase [1]; [6]): 1530 ± 220 nM
SMILES: c1ccc(CCCNc2nc(-c3cccnc3)nc3ccccc23)cc1 [Compound 8d]

IC50 (wild-type GCase [1]; [6]): 1280 ± 130 nM
SMILES: c1ccc(CCCCNc2nc(-c3cccnc3)nc3ccccc23)cc1 [Compound 8e]

IC50 (wild-type GCase [1]; [6]): 1400 ± 120 nM
SMILES: c1ccc(CCNc2nc(-c3cccnc3)nc3ccccc23)nc1 [Compound 8f]

IC50 (wild-type GCase [1]; [6]): 4290 ± 570 nM
SMILES: c1cncc(CCNc2nc(-c3cccnc3)nc3ccccc23)c1 [Compound 8g]

IC50 (wild-type GCase [1]; [7]): 8.3 ± 1 nM
IC50 (wild-type GCase [1]; [8]): 25.9 ± 3.9 nM
IC50 (wild-type GCase [1]; [9]): 12.7 ± 1.4 nM
SMILES: c1cncc(-c2nc(NC3Cc4ccccc4C3)c3ccccc3n2)c1 [Compound 9c]

GCase inhibitory activity in words (wild-type GCase [1]): low micromolar range
IC50 (wild-type GCase [1]; [7]): 821 ± 73 nM
SMILES: c1cncc(-c2nc(NC3CCc4ccccc43)c3ccccc3n2)c1 (stereo not drawn) [Compound 9e]

IC50 (wild-type GCase [1]; [10]): 122 ± 12 nM
SMILES: Cc1ccncc1-c1nc(NC2Cc3ccccc3C2)c2ccccc2n1 [Compound 11a, N-(2,3-dihydro-1H-inden-2-yl)-2-(4-methylpyridin-3-yl)quinazolin-4-amine]

IC50 (wild-type GCase [1]; [10]): 12.5 ± 1.7 nM
SMILES: Cc1cncc(-c2nc(NC3Cc4ccccc4C3)c3ccccc3n2)c1 [Compound 11b, N-(2,3-dihydro-1H-inden-2-yl)-2-(5-methylpyridin-3-yl)quinazolin-4-amine]

IC50 (wild-type GCase [1]; [10]): 29.4 ± 3.6 nM
SMILES: Cc1ccc(-c2nc(NC3Cc4ccccc4C3)c3ccccc3n2)cn1 [Compound 11c, N-(2,3-dihydro-1H-inden-2-yl)-2-(6-methylpyridin-3-yl)quinazolin-4-amine]

IC50 (wild-type GCase [1]; [10]): 6.5 ± 0.7 nM
IC50 (wild-type GCase [1]; [8]): 10.5 ± 1.5 nM
IC50 (wild-type GCase [1]; [9]): 9.4 ± 1.4 nM
activity of acid α-glucosidase on compound treatment (acid α-glucosidase (GAA)): not significantly changed
activity of α-galactosidase A on compound treatment (α-galactosidase A (GLA)): not significantly changed
SMILES: c1ccc(-c2nc(NC3Cc4ccccc4C3)c3ccccc3n2)cc1 [Compound 11d, N-(2,3-dihydro-1H-inden-2-yl)-2-phenylquinazolin-4-amine]
stabilization of GCase (melting point change) (wild-type GCase [2]): stabilize wild-type GCase in a dose-dependent manner; also recorded: increased the GCase melting point in a dose-dependent manner
concentration of GCase protein [3]: significantly increased the concentration of GCase

IC50 (wild-type GCase [1]; [10]): 168 ± 18 nM
SMILES: c1ccc2c(c1)CC(Nc1nc(-c3ccncc3)nc3ccccc13)C2 [Compound 11e, N-(2,3-dihydro-1H-inden-2-yl)-2-(pyridin-4-yl)quinazolin-4-amine]
